This is an account of results in US20250171404A1, “PCNA INHIBITORS AND USES THEREOF” (CITY OF HOPE, priority 2022, published 2025).

Series [1] deals with nonmalignant cells, including human PBMCs, small airway epithelial cells (hSEAC), and neural crest stem cells (7SM0032). Nature of the series: Toxicity to nonmalignant cells.
A further series deals with H82 xenograft tumors. As to the kind of experiment: Xenograft tumor model, small-cell lung cancer. The class given is in vivo, mice. The settings on record: 40 mg/kg twice daily, oral, vs vehicle. As to the method:
FIGS. 4A-4H. Pharmacokinetics and anti-tumor growth activity of AOH1996 in vivo. FIG. 4A: After oral administration, the plasma concentrations of AOH1996 from three male and three female ES1^e/SCID mice at the indicated time points were averaged and graphed ±S.D. The inset contains PK parameters determined by a standard noncompartmental method. FIG. 4B: A similar PK study of AOH1996 was performed in dogs. FIGS. 4C-4E: Mice bearing the xenograft tumors of neuroblastoma (FIG. 4C: SK-N-BE(2)c), breast cancer (FIG. 4D: MDA-MB-468), and small-cell lung cancer (FIG. 4E: H82) were given vehicle only (black) or 40 mg/kg of AOH1996 (grey) twice daily immediately after the first measurement. Tumor sizes were measured by a dial caliper each week. Tumor volumes (0.4×L×W^2) were averaged and graphed ±S.E. (*, P<0.01). FIG. 4F: Animal body weight was monitored throughout the studies as an indicator of toxicity. […] FIG. 4G: The levels of phosphor-Chk1 (pChk1) and γH2A.X in SK-N-BE(2)c derived tumor samples were analyzed by IHC. […] The p values determined by the Log-rank (Mantel-Cox) test between combination treatment and each of the control groups are p=0.0003 (Combination vs. NoRx), p=0.005 (Combination vs. AOH1996 alone), and p=0.024 (Combination vs. CPT-11 alone).
In vivo tumor model. […] Tumor size and animal weight were measured weekly. […]

The test system of a further series is 7SM0032. Nature of the series: Apoptosis (TUNEL assay), nonmalignant cells. Format: cell-based, human. Particulars: 500 nM, 24 h; 7SM0032 cells. On the procedure:
FIGS. 3A-3D. Therapeutic properties of AOH1996. FIG. 3A: Normal cells (7SM0032) or cancer cells (SH-SY5Y and SK-N-BE(2)c) cells were fixed, stained with PI, and analyzed by flow cytometry following treatment with 500 nM AOH1996 for the indicated time. FIG. 3B: SK-N-DZ neuroblastoma cells and nonmalignant 7SM0032 stem cells were incubated with 500 nM AOH1996 for 24 h. Then, after being fixed on slides, cell apoptosis were analyzed by a TUNEL assay. Left: TMR fluorophore attached to the free ends of DNA indicates cells undergoing apoptosis. DAPI stained nuclei also shown. Right: Average abundance ±S.D. of apoptotic 7SM0032 (black histogram) and SK-N-DZ (grey histogram) cells relative to the total number of cells are shown in 5 randomly selected fields. […] The relative number of colonies determined in triplicates for each treatment condition were averaged and graphed ±SDs (*, P<0.01). […] Cell growth was measured as the percentage of cell confluence by imaging every 6 h for a total of 48 h.
Cell apoptosis was measured on a chamber slide at a seeding density of 1×10^5/mL. After treatment with 500 nM AOH1996 for 24 h, cells were fixed and analyzed by a TUNEL assay using the TMR red in situ cell death detection kit (Roche Diagnostics).

As for `COc1cccc(Oc2ccccc2NC(=O)CNC(=O)c2cccc3ccccc23)c1` [AOH1996, N-(2-((2-(3-methoxyphenoxy)phenyl)amino)-2-oxoethyl)-1-naphthamide], in series [1], the “difference in sensitivity between cancer and normal cells” value is 30 fold. The “concentration up to which not significantly toxic” value in series [1] (human PBMCs, hSEAC, 7SM0032) is “at least 10 μM”. For the same compound, the tumor burden entry in the series with H82 xenograft tumors is given as “significantly reduced tumor burden”. Besides, in the series on 7SM0032, the apoptosis result is recorded as “Nor does it induce apoptosis in 7SM0032 cells”.
